{"source": "paper PMC6686011", "about": "“Ruthenium(II) complexes with 6-methyl-2-thiouracil selectively reduce cell proliferation, cause DNA double-strand break and trigger caspase-mediated apoptosis through JNK/p38 pathways in human acute promyelocytic leukemia cells” (Scientific Reports, 2019)", "key": {"[1]": {"assay": "Toxicological evaluation in xenograft mice", "assay_type": "in vivo, C.B-17 SCID mice", "conditions": "doxorubicin 0.1 mg/kg", "procedure": "To assess toxicological aspects, mice were weighed at the beginning and at the end of the experiment as described previously by Rodrigues et al.[26]. […] Hematological analysis was performed using the Advia 60 hematology system (Bayer, Leverkusen, Germany). Livers, kidneys, lungs and hearts were removed, weighed and examined for any signs of macroscopic lesions, color changes and/or hemorrhages. After macroscopic examination, tumors, livers, kidneys, lungs and hearts were fixed in 4% formalin buffer and embedded in paraffin. Tissue sections were stained with hematoxylin/eosin staining, and a pathologist performed the histological analyses under optical microscopy."}, "HL-60 cells [2]": {"tested_on": "HL-60 cells", "assay": "Trypan blue exclusion assay", "assay_type": "cell-based, human", "conditions": "HL-60, 24 h, 1 μM", "procedure": "The number of viable cells and non-viable (take up trypan blue) were counted by TBE method. Shortly, 90 μL was removed from the cell suspension and 10 μL of trypan blue (0.4%) was added. Cell counting was performed using a light microscope with a neubauer chamber."}, "HL-60 cells [3]": {"tested_on": "HL-60 cells", "assay": "Apoptosis quantification, annexin V-FITC/PI flow cytometry", "assay_type": "cell-based, human", "procedure": "Shortly, cells were washed twice with saline solution and resuspended in 100 μL of binding buffer plus 5 μL of propidium iodide (PI) and 5 μL of FITC Annexin V. Then, cells were gently mixed by vortexing and incubated for 15 min at room temperature in the dark. Finally, 400 μL of binding buffer was added to each tube, and the cell fluorescence was determined by flow cytometry, as described above. Percentage of viable, early apoptotic, late apoptotic and necrotic cells were measured. […] Cells were then analyzed by FITC Annexin V Apoptosis Detection assay as described above."}, "HL-60 cells [4]": {"tested_on": "HL-60 cells", "assay": "Mitochondrial transmembrane potential, rhodamine 123", "assay_type": "cell-based, human", "conditions": "HL-60, 24 h; DOX 1 µM", "procedure": "Mitochondrial transmembrane potential was determined by retention of dye rhodamine 123 as described previously. Briefly, cells were incubated with rhodamine 123 (5 μg/mL, Sigma-Aldrich Co.) at room temperature for 15 min in dark and washed with saline solution. Cells were incubated again in saline solution for more 30 min in dark and cell fluorescence was determined by flow cytometry as described above."}, "HL-60 cell xenografts": {"tested_on": "HL-60 cell xenografts", "assay": "Human myeloid leukemia xenograft model", "assay_type": "in vivo, C.B-17 SCID mice", "conditions": "0.1 mg/kg intraperitoneal once a day for 13 consecutive days", "procedure": "Fifty six specific-pathogen-free (SPF) C.B-17 severe combined immunodeficient (SCID) mice (females, 23–26 g) were used in this study. The animals were obtained and maintained at animal facilities from Gonçalo Moniz Institute-FIOCRUZ (Salvador, Bahia, Brazil), and housed in cages with free access to food and water, and kept under a 12:12 h light-dark cycle (lights on at 6:00 a.m.). The animals were treated according to ethical principles for animal experimentation of SBCAL (Brazilian Association of Laboratory Animal Science), Brazil. Experimental protocol have been approved (number 06/2015) by Animal Ethics Committee of Gonçalo Moniz Institute-FIOCRUZ (Salvador, Bahia, Brazil).\nHuman myeloid leukemia xenograft model was carry out as described previously by Rodrigues et al.[26] with minor modifications. HL-60 cells (2.5 × 10^7 cells/500 µL) were implanted subcutaneously into the left front armpit of the mice. […] When the tumors reached 100 to 200 mm^3 (22 days after HL-60 cells injection), the animals were treated through the intraperitoneal route (200 µL per animal) once a day for 13 consecutive days. One day after the end of the treatment, the animals were anesthetized, and peripheral blood samples were collected from brachial artery. Animals were euthanized by anesthetic overdose, and tumors were excised and weighed."}, "HL-60 cells [5]": {"tested_on": "HL-60 cells", "assay": "Morphological analysis (May-Grunwald-Giemsa staining, light scattering)", "assay_type": "cell-based, human", "conditions": "HL-60, 12 and 24 h; DOX 1 µM", "procedure": "To cell morphology evaluation, slides were prepared using cytospin and stained with May-Grunwald-Giemsa. Morphological changes were assessed by light microscopy (Olympus BX41, Tokyo, Japan) using Image-Pro software (Media Cybernetics, Inc. Silver Spring, USA). Light scattering features were determined by flow cytometry. At least 10^4 events were recorded per sample using a BD LSRFortessa cytometer along with BD FACSDiva Software (BD Biosciences, San Jose, CA, USA) and Flowjo Software 10 (Flowjo LCC, Ashland, OR, USA). Cellular debris was omitted from the analysis."}, "[6]": {"tested_on": "PBMC (human peripheral blood mononuclear cells)", "assay": "Cytotoxicity, alamar blue assay", "assay_type": "cell-based", "conditions": "Homo sapiens, PBMC, non-cancer cells, 72 h, read-out: IC50 and 95% CI, PBMC", "source_text": "HL-60 (human acute promyelocytic leukemia), K-562 (human chronic myelogenous leukemia), HCT116 (human colon carcinoma), HepG2 (human hepatocellular carcinoma), HSC-3 (human oral squamous cell carcinoma), SCC-9 (human oral squamous cell carcinoma), B16-F10 (mouse melanoma), MRC-5 (human lung fibroblast), WT SV40 MEF (wild-type immortalized mouse embryonic fibroblast) and BAD KO SV40 MEF (BAD gene knockout immortalized mouse embryonic fibroblast) cell lines were obtained from American Type Culture Collection (ATCC, Manassas, VA, USA). Human peripheral blood mononuclear cells (PBMC) were isolated using standard Ficoll density gradient from heparinized blood collected from 20- to 35-year-old, non-smoker healthy donors with informed consent (number 031019/2013) approved by Human Ethics Committee of Gonçalo Moniz Institute from Oswaldo Cruz Foundation (IGM-FIOCRUZ/BA), and all experiments were performed in accordance with relevant guidelines and regulations. Cells were cultured as recommended by ATCC guidelines and a mycoplasma stain kit (Sigma-Aldrich) was used to validate the use of cells free from contamination. Cell viability in all experiments was examined using the trypan blue exclusion (TBE) assay. Over 90% of the cells were viable at the beginning of the culture.\n(§1) Cytotoxicity was measured using alamar blue assay and was performed following the procedure that was described previously[21],[22]. Briefly, cells were inserted in 96-well plates and incubated overnight. Then, the complexes were dissolved in dimethyl sulfoxide (DMSO, LGC Biotechnology, São Paulo, SP, Brazil) and added to each well and incubated for 72 h. […] Before the end of treatment (4 h for cell lines and 24 h for PBMC), 20 μL of a stock solution (0.312 mg/mL) of alamar blue (resazurin, Sigma-Aldrich Co.) were added to each well. Absorbance at 570 nm and 600 nm was measured using SpectraMax 190 Microplate Reader (Molecular Devices, Sunnyvale, CA, USA)."}, "[7]": {"tested_on": "WT SV40 MEF (wild-type immortalized mouse embryonic fibroblasts)", "assay": "Cytotoxicity, alamar blue assay", "assay_type": "cell-based", "conditions": "Mus musculus, MEF, 72 h, read-out: IC50, WT SV40 MEF cell line", "procedure": "as §1"}, "[8]": {"tested_on": "BAD KO SV40 MEF (immortalized mouse embryonic fibroblast with the BAD gene knocked out)", "assay": "Cytotoxicity, alamar blue assay", "assay_type": "cell-based", "conditions": "Mus musculus, MEF, 72 h, read-out: IC50, BAD KO SV40 MEF cell line", "procedure": "as §1"}, "[9]": {"tested_on": "SCC-4 (human oral squamous cell carcinoma)", "assay": "Cytotoxicity, alamar blue assay", "assay_type": "cell-based", "conditions": "Homo sapiens, SCC-4; alamar blue, 72 h; read-out: IC50 and 95% CI, SCC-4", "procedure": "as §1"}, "[10]": {"tested_on": "HL-60 (human acute promyelocytic leukemia)", "assay": "Cytotoxicity, alamar blue assay", "assay_type": "cell-based", "conditions": "Homo sapiens, HL-60; alamar blue, 72 h; read-out: IC50 and 95% CI, HL-60", "procedure": "as §1"}}, "data": [{"molecule": "COc1cccc2c1C(=O)c1c(O)c3c(c(O)c1C2=O)C[C@@](O)(C(=O)CO)C[C@@H]3O[C@H]1C[C@H](N)[C@H](O)[C@H](C)O1", "note": "[doxorubicin, reference compound]", "values": [{"measurement": "Kidney histopathology", "setting": "[1]; complex 1 20 and 40 mg/kg", "value": "Coagulation necrosis was observed in renal tubules"}, {"measurement": "Lung histopathology", "setting": "[1]; complex 1 20 and 40 mg/kg", "value": "tumor nodules were observed only in one animal"}, {"measurement": "Body weight", "setting": "[1]; mice bearing HL-60 cells, 13 days", "value": "decreased body weight"}, {"measurement": "Reduction of the number of viable cells", "setting": "HL-60 cells [2]", "value": "reduced the number of viable cells"}, {"measurement": "Apoptotic cells, in words", "setting": "HL-60 cells [3]; HL-60, 12 and 24 h, DOX 1 µM", "value": "induced apoptosis"}, {"measurement": "Apoptosis on cotreatment with pan-caspase inhibitor Z-VAD(OMe)-FMK, in words", "setting": "HL-60 cells [3]; HL-60, 2 h pre-treatment 50 µM Z-VAD(OMe)-FMK, then 24 h", "value": "led to apoptosis through caspases pathways"}, {"measurement": "Mitochondrial transmembrane potential, in words", "setting": "HL-60 cells [4]", "value": "induced depolarization of mitochondrial transmembrane potential"}, {"measurement": "Reduction of tumor weight", "setting": "HL-60 cell xenografts", "value": 62.0, "unit": "%"}, {"measurement": "Cell morphology, May-Grunwald-Giemsa staining", "setting": "HL-60 cells [5]", "value": "presented changes associated with apoptosis"}, {"measurement": "IC50", "setting": "[6]", "value": 5170, "unit": "nM"}, {"measurement": "IC50", "setting": "[7]", "value": 40, "unit": "nM"}, {"measurement": "IC50", "setting": "[8]", "value": 410, "unit": "nM"}, {"measurement": "IC50", "setting": "[9]", "value": 1430, "unit": "nM"}, {"measurement": "IC50", "setting": "[10]", "value": 20, "unit": "nM"}]}]}
